Consider two molecules from ChEMBL document CHEMBL4706681, “New 2-Pyrazoline and Hydrazone Derivatives as Potent and Selective Monoamine Oxidase A Inhibitors” (J Med Chem, 2021).

Calls of active or inactive are those of the source. No cut-off for these calls is given here.

Experiment [1] can be described thus: Ex vivo inhibition of MAOA in CD1 mouse brain homogenates assessed as 5-HT levels at 20 mg/kg, po administered as single acute dose via gavage and measured after 1 hr by ELISA kit method (reference value: 0.80 +/- 0.006 ug/g). It is filed as functional.
Another experiment has as its system Mus musculus. As to the kind of experiment: Antidepressant-like activity in CD1 mouse assessed as reduction in immobility time at 30 mg/kg, po administered via gavage as single dose measured after 1 hr by Porsolt-forced swim test. It is filed as functional, organism-based.
The target of experiment [2] is T1, Amine oxidase [flavin-containing] A (Homo sapiens, UniProt P21397).
T1 sequence (P21397 whole entry): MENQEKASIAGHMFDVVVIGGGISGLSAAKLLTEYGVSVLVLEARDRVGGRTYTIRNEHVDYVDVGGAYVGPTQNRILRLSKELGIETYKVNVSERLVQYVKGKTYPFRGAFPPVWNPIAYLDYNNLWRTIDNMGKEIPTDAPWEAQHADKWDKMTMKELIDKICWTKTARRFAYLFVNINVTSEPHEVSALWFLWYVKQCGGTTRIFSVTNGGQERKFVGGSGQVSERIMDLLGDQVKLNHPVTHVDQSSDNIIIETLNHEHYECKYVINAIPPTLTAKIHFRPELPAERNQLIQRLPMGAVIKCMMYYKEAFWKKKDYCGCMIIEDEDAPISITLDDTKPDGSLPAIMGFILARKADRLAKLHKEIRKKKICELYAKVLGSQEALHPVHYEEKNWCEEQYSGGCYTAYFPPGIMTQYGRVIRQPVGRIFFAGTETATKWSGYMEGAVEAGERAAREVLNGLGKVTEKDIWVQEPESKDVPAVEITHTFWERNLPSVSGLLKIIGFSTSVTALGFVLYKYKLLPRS
Put plainly: Inhibition of recombinant human MAO-A expressed in baculovirus infected BTI insect cells using p-tyramine as substrate incubated for 30 mins by Amplex red reagent based fluorescence analysis.

A short description of experiment [3]: Ex vivo inhibition of MAOA in CD1 mouse brain homogenates assessed as MAOA level at 30 mg/kg, po administered as subchronic dose via gavage for 7 days and measured 1 hr post last dose by monoamine oxidase assay (reference value: 0.40 +/- 0.005 nmol/min/mg). It is filed as functional. To be noted: time 7 day.
A short description of experiment [4]: Ex vivo inhibition of MAOA in CD1 mouse brain homogenates assessed as MAOA level at 30 mg/kg, po administered as single acute dose via gavage and measured after 1 hr by monoamine oxidase assay (reference value: 0.40 +/- 0.012 nmol/min/mg). It is filed as functional.
Experiment [5] is described as follows: Selectivity index, ratio of Ki for inhibition of recombinant human MAO-A to Ki for inhibition of recombinant human MAO-B using p-tyramine as substrate.
The nature of experiment [6]: Ex vivo inhibition of MAOA in CD1 mouse brain homogenates assessed as 5-HT levels at 30 mg/kg, po administered as subchronic dose via gavage for 7 days and measured 1 hr post last dose by ELISA kit method (reference value: 0.78 +/- 0.01 ug/g). It is filed as functional. The note with it: time 7 day.

Take `O=C(NCCN1CCOCC1)c1ccc(Cl)cc1` [MOCLOBEMIDE]: the Activity in experiment [1] turned out to be 0.83 µg/g.

With `COc1ccc(C2=NN(C(=O)Cn3c(=O)oc4ccc(C)cc43)C(c3cccc(OC)c3OC)C2)cc1` (configuration not stated), in the experiment with Mus musculus, the outcome was Active. In experiment [2], the inhibitory constant (Ki) is 9 nM. Besides, the Activity in experiment [3] is 0.21 nmol/min/mg; in experiment [4], 0.23 nmol/min/mg; in experiment [6], 1.15 µg/g. In addition, the Ratio Ki in experiment [5] was 1.37 10^-5No_unit.
